In brackets after ≈: the same amount, converted by molar mass. Starred links: 1 amine or outer side, 2 acyl side, 3 side chain; linkers in the order of their positions; H or OH if unused. Non-standard residues stand in square brackets, D forms with d. Residues, ends and D or L forms follow the SMILES beside them. Trp(1-CMe2(2S-oxiranyl)) = CC(C)([C@H]1CO1)n1cc(C[C@H](N)C(=O)O)c2ccccc21; Trp(1-(1,1-Me2-allyl)) = C=CC(C)(C)n1cc(C[C@H](N)C(=O)O)c2ccccc21; X3 = CC(C)([C@H](O)CCl)n1cc(C[C@H](N[*:1])C(=O)[*:2])c2ccccc21; Tyr(3-NO2) = N[C@@H](Cc1ccc(O)c([N+](=O)[O-])c1)C(=O)O; NMeLeu(5-OH,4R) = CN[C@@H](C[C@@H](C)CO)C(=O)O; X1 = COC(OC)C(C)C[C@@H](C(=O)[*:2])N(C)[*:1]; X2 = C[C@H](CO)C[C@@H](C(=O)[*:2])N(C)[*:1]; Gly(E-crotyl) = C/C=C/C[C@H](N)C(=O)O; NMeL = CN[C@@H](CC(C)C)C(=O)O
Experiments:
[1] = tested on: Mycobacterium tuberculosis; experiment: Antimycobacterial activity against Mycobacterium tuberculosis H37Rv assessed as reduction in microbial growth after 7 days by alamar blue assay; format: functional; settings: 168 h
[2] = biological target: T1, ATP-dependent Clp protease ATP-binding subunit ClpC1 (Mycobacterium tuberculosis, UniProt P9WPC9); experiment: Binding affinity to recombinant Mycobacterium tuberculosis H37Rv N-terminal His6-tagged ClpC1 (1 to 145 residues) expressed in Escherichia coli BL21 cells by surface plasmon resonance analysis
[3] = biological target: T1, ATP-dependent Clp protease ATP-binding subunit ClpC1; experiment: Binding affinity to recombinant full length Mycobacterium tuberculosis H37Rv ClpC1 (1 to 842 residues) expressed in Escherichia coli BL21 cells by surface plasmon resonance analysis
[4] = tested on: Mycobacterium tuberculosis; experiment: Antimycobacterial activity against nonreplicating Mycobacterium tuberculosis H37Rv under hypoxic condition by fluorescence based assay; format: functional
[5] = tested on: Mycobacteroides abscessus; experiment: Antimycobacterial activity against Mycobacterium abscessus ATCC 19977 assessed as reduction in microbial growth after 7 days by alamar blue assay; format: functional; settings: ATCC 19977, 168 h
[6] = tested on: Vero; experiment: cells; settings: Chlorocebus sabaeus
Description: Cytotoxicity against African green monkey Vero cells

T1 sequence (P9WPC9 whole entry, the tested form may be a part): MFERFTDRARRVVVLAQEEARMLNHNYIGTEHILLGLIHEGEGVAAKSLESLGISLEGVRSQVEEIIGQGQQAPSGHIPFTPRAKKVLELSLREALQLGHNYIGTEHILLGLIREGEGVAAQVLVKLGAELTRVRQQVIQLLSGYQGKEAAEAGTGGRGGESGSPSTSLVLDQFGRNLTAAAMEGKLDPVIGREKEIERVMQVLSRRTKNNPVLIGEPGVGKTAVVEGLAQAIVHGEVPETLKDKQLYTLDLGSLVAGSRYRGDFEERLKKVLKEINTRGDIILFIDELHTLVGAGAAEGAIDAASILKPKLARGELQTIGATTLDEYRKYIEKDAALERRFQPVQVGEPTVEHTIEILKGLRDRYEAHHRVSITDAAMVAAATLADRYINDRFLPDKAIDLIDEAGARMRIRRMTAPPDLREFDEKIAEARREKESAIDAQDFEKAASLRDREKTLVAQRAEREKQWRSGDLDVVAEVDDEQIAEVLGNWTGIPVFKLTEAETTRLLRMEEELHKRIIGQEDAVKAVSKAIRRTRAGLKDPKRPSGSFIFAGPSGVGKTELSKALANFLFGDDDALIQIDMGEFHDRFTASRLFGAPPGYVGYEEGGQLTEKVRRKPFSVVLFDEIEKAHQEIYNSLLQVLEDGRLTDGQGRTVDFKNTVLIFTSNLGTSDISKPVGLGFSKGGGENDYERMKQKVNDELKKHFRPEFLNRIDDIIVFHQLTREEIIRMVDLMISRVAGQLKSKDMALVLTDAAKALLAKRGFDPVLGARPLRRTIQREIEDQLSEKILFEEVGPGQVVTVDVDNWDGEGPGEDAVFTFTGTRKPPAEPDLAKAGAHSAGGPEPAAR

Structure (SMILES)	MIC [1] [µM]	Kd [2] [nM]	Kd [3] [nM]	MIC [4] [µM]	MIC [5] [µM]	IC50 [6] [nM]
C=CC(C)(C)n1cc(C[C@@H]2NC(=O)[C@H](C/C=C/C)NC(=O)[C@H](CC(C)C)NC(=O)[C@H](C[C@H](C)CO)N(C)C(=O)[C@H](C)NC(=O)[C@H](Cc3ccc(O)c([N+](=O)[O-])c3)NC(=O)[C@H](CC(C)C)N(C)C2=O)c2ccccc21 (cyclo(A[X2]L[Gly(E-crotyl)][Trp(1-(1,1-Me2-allyl))][NMeL][Tyr(3-NO2)]))	0.84	1100	1100	4 to 10 (≈ 4.11 to 10.3 µg/mL)	–	–
C/C=C/C[C@@H]1NC(=O)[C@H](CC(C)C)N2C(=O)[C@H](CC(C)[C@H]2O)N(C)C(=O)[C@H](C)NC(=O)[C@H](Cc2ccc(O)c([N+](=O)[O-])c2)NC(=O)[C@H](CC(C)C)N(C)C(=O)[C@H](Cc2cn(C(C)(C)[C@H]3CO3)c3ccccc23)NC1=O (stereo not given in full)	0.02	60	60	4 to 10 (≈ 4.17 to 10.4 µg/mL)	0.29	–
C=CC(C)(C)n1cc(C[C@@H]2NC(=O)[C@H](C/C=C/C)NC(=O)[C@H](CC(C)C)NC(=O)[C@H](CC(C)C)N(C)C(=O)[C@H](C)NC(=O)[C@H](Cc3ccc(O)cc3)NC(=O)[C@H](CC(C)C)N(C)C2=O)c2ccccc21 (HELM PEPTIDE1{A.[meL].L.[C/C=C/C[C@H](N[*:1])C(=O)[*:2]].[C=CC(C)(C)n1cc(C[C@H](N[*:1])C(=O)[*:2])c2ccccc21].[meL].Y}$PEPTIDE1,PEPTIDE1,1:R1-7:R2$$$V2.0)	> 10	1200	5700	4 to 10 (≈ 3.87 to 9.67 µg/mL)	–	–
C/C=C/C[C@@H]1NC(=O)[C@H](CC(C)C)NC(=O)[C@H](CC(C)C)N(C)C(=O)[C@H](C)NC(=O)[C@H](Cc2ccc(O)c([N+](=O)[O-])c2)NC(=O)[C@H](CC(C)C)N(C)C(=O)[C@H](Cc2cn(C(C)(C)[C@H]3CO3)c3ccccc23)NC1=O (cyclo(A[NMeL]L[Gly(E-crotyl)][Trp(1-CMe2(2S-oxiranyl))][NMeL][Tyr(3-NO2)]))	0.2	1700	540	4 to 10 (≈ 4.11 to 10.3 µg/mL)	–	–
C=CC(C)(C)n1cc(C[C@@H]2NC(=O)[C@H](CC(C)C)N(C)C2=O)c2ccccc21	> 10	–	–	4 to 10 (≈ 1.53 to 3.82 µg/mL)	–	–
C/C=C/C[C@@H]1NC(=O)[C@H](CC(C)C)NC(=O)[C@H](C[C@@H](C)CO)N(C)C(=O)[C@H](C)NC(=O)[C@H](Cc2ccc(O)c([N+](=O)[O-])c2)NC(=O)[C@H](CC(C)C)N(C)C(=O)[C@H](Cc2cn(C(C)(C)[C@H]3CO3)c3ccccc23)NC1=O (cyclo(A[NMeLeu(5-OH,4R)]L[Gly(E-crotyl)][Trp(1-CMe2(2S-oxiranyl))][NMeL][Tyr(3-NO2)]))	0.44	1600	1300	4 to 10 (≈ 4.18 to 10.4 µg/mL)	–	–
C=CC(C)(C)n1cc(C[C@@H]2NC(=O)[C@H](C/C=C/C)NC(=O)[C@H](CC(C)C)NC(=O)[C@H](CC(C)C)N(C)C(=O)[C@H](C)NC(=O)[C@H](Cc3ccc(O)c([N+](=O)[O-])c3)NC(=O)[C@H](CC(C)C)N(C)C2=O)c2ccccc21 (cyclo(A[NMeL]L[Gly(E-crotyl)][Trp(1-(1,1-Me2-allyl))][NMeL][Tyr(3-NO2)]))	1.7	1200	3200	4 to 10 (≈ 4.05 to 10.1 µg/mL)	–	–
CO[C@H]1/C=C/O[C@@]2(C)Oc3c(C)c(O)c4c(O)c(c(/C=N/N5CCN(C)CC5)c(O)c4c3C2=O)NC(=O)/C(C)=C\C=C\[C@H](C)[C@H](O)[C@@H](C)[C@@H](O)[C@@H](C)[C@H](OC(C)=O)[C@@H]1C [RIFAMPIN]	0.03	–	–	–	> 4	> 122000
NNC(=O)c1ccncc1 [ISONIAZID]	0.46	–	–	–	> 8	> 50000
C/C=C/C[C@@H]1NC(=O)[C@H](CC(C)C)NC(=O)[C@H](CC(C)C)N(C)C(=O)[C@H](C)NC(=O)[C@H](Cc2ccc(O)c([N+](=O)[O-])c2)NC(=O)[C@H](CC(C)C)N(C)C(=O)[C@H](Cc2cn(C(C)(C)[C@H](O)CCl)c3ccccc23)NC1=O (cyclo(A[NMeL]L[Gly(E-crotyl)][X3][NMeL][Tyr(3-NO2)]))	–	1500	1500	4 to 10 (≈ 4.26 to 10.6 µg/mL)	–	–
C/C=C/C[C@@H]1NC(=O)[C@H](CC(C)C)N2C(=O)[C@H](C[C@@H](C)[C@H]2O)N(C)C(=O)[C@H](C)NC(=O)[C@H](Cc2ccc(O)c([N+](=O)[O-])c2)NC(=O)[C@H](CC(C)C)N(C)C(=O)[C@H](Cc2cn(C(C)(C)[C@H](O)CO)c3ccccc23)NC1=O	0.1	300	280	4 to 10 (≈ 4.24 to 10.6 µg/mL)	–	–
C/C=C/C[C@@H]1NC(=O)[C@H](CC(C)C)NC(=O)[C@H](CC(C)C)N(C)C(=O)[C@H](C)NC(=O)[C@H](Cc2ccc(O)c([N+](=O)[O-])c2)NC(=O)[C@H](CC(C)C)NC(=O)[C@H](Cc2cn(C(C)(C)[C@H]3CO3)c3ccccc23)NC1=O (cyclo(A[NMeL]L[Gly(E-crotyl)][Trp(1-CMe2(2S-oxiranyl))]L[Tyr(3-NO2)]))	0.57	–	1500	4 to 10 (≈ 4.06 to 10.1 µg/mL)	–	–
C/C=C/C[C@@H]1NC(=O)[C@H](CC(C)C)NC(=O)[C@H](CC(C)C(OC)OC)N(C)C(=O)[C@H](C)NC(=O)[C@H](Cc2ccc(O)c([N+](=O)[O-])c2)NC(=O)[C@H](CC(C)C)N(C)C(=O)[C@H](Cc2cn(C(C)(C)[C@H]3CO3)c3ccccc23)NC1=O (stereo partly drawn) (cyclo(A[X1]L[Gly(E-crotyl)][Trp(1-CMe2(2S-oxiranyl))][NMeL][Tyr(3-NO2)]))	0.11	310	450	4 to 10 (≈ 4.35 to 10.9 µg/mL)	–	–
C/C=C/C[C@@H]1NC(=O)[C@H](CC(C)C)N2C(=O)[C@H](C[C@](C)(O)[C@H]2O)N(C)C(=O)[C@H](C)NC(=O)[C@H](Cc2ccc(O)c([N+](=O)[O-])c2)NC(=O)[C@H](CC(C)C)N(C)C(=O)[C@H](Cc2cn(C(C)(C)[C@H]3CO3)c3ccccc23)NC1=O	0.03	60	50	4 to 10 (≈ 4.23 to 10.6 µg/mL)	–	–
C/C=C/C[C@@H]1NC(=O)[C@H](CC(C)C)NC(=O)[C@H](C[C@H](C)CO)N(C)C(=O)[C@H](C)NC(=O)[C@H](Cc2ccc(O)c([N+](=O)[O-])c2)NC(=O)[C@H](CC(C)C)N(C)C(=O)[C@H](Cc2cn(C(C)(C)[C@H]3CO3)c3ccccc23)NC1=O (cyclo(A[X2]L[Gly(E-crotyl)][Trp(1-CMe2(2S-oxiranyl))][NMeL][Tyr(3-NO2)]))	0.25	620	500	4 to 10 (≈ 4.18 to 10.4 µg/mL)	–	–

Reference: ChEMBL document CHEMBL4613246, “Antimycobacterial Rufomycin Analogues from Streptomyces atratus Strain MJM3502” (J Nat Prod, 2020)
